Like-named read-outs stand apart in the source and are kept apart here. Positions of bridges follow the written chain, without caps; N, C: chain ends. Non-standard residues stand in square brackets, D forms with d. Residues, ends and D or L forms follow the SMILES beside them. ξ: configuration not given here. *: point of attachment. Hyp = O=C(O)[C@@H]1C[C@@H](O)CN1; NMeF = CN[C@@H](Cc1ccccc1)C(=O)O; Ile(3ξ) = CCC(C)[C@H](N)C(=O)O; Thr(3ξ) = CC(O)[C@H](N)C(=O)O; NMeNle = CCCC[C@H](NC)C(=O)O; NMeS = CN[C@@H](CO)C(=O)O; NMeA = CN[C@@H](C)C(=O)O; Dab = NCC[C@H](N)C(=O)O; Dap = NC[C@H](N)C(=O)O; Bn = c1ccc(C*)cc1; Sar = CNCC(=O)O
How the values were obtained:
[1] = biological target: T1, Human PD-L1/PD-1 (Homo sapiens, UniProt Q9NZQ7); assay: HTRF PD-1-Ig/PD-L1-His binding assay (human PD-L1)
T1 construct: made in house; host or cells: HEK293T
T1 sequence (Q9NZQ7 with tags, fused parts or gaps): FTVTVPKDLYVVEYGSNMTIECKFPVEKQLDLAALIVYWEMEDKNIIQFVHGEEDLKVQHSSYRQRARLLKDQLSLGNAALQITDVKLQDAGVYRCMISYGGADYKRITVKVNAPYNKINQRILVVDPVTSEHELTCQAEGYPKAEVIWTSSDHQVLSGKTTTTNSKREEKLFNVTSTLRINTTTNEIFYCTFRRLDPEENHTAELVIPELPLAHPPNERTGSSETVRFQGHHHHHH
In short: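 Readout: time-resolved FRET between Eu cryptate-labeled anti-Ig (1 nM final) and APC-labeled anti-His (20 nM final) antibodies. These detect interaction of Fc-fused PD-1 with His-tagged human PD-L1 in dPBS containing 0.1% BSA and 0.05% Tween-20.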

[2] = biological target: T2, LK35.2-hPD-L1 cells / PE-labeled PD-1-Ig (Homo sapiens, UniProt Q9NZQ7); assay: LK35.2-hPD-L1 cell binding high-content screening assay; format: cell-based; conditions: cell binding assay, cell line not given
T2 construct: expressed in transfected cells; host or cells: LK35.2 mouse B cell line
T2 sequence (Q9NZQ7 19-290): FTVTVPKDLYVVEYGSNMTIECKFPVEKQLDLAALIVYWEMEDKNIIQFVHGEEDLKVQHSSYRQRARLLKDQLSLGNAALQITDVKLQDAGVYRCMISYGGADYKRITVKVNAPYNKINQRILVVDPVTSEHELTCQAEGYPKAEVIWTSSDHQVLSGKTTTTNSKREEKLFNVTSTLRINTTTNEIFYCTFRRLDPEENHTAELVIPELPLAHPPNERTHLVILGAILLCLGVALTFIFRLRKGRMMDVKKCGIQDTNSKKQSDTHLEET
In short: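 Readout: high-content imaging of PE-PD-1-Ig bound to LK35.2-hPD-L1 cells. Cells plated overnight (RPMI/10% FCS); compound + 1 nM PE-PD-1-Ig, 1 h, 37 °C; 3× dPBS wash before imaging.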

[3] = cluster symbol, read-out: HTRF IC50 cluster
[4] = cluster symbol, read-out: CBA IC50 cluster
[5] = value given instead of cluster, read-out: CBA IC50 value

SMILES | IC50 [1, 3] [nM] | IC50 [2, 4] [nM] | IC50 [2, 5] [nM] | IC50 ([1]; value given instead of cluster, read-out: HTRF IC50 value) [nM]
CCCC[C@H]1C(=O)N(C)[C@@H](Cc2ccccc2)C(=O)N[C@@H](CN)C(=O)N[C@H](C(=O)NCC(N)=O)CSCC(=O)N[C@@H](Cc2ccc(O)cc2)C(=O)N(C)[C@@H](C)C(=O)N[C@@H](CC(N)=O)C(=O)N2CCC[C@H]2C(=O)N[C@@H](Cc2c[nH]cn2)C(=O)N[C@@H](CCC(=O)O)C(=O)N2C[C@H](O)C[C@H]2C(=O)N[C@@H](Cc2c[nH]c3ccccc23)C(=O)N[C@@H](CCN)C(=O)N[C@@H](Cc2c[nH]c3ccccc23)C(=O)N1C [Example 5147] ({CH2CO}-Y[NMeA]NPHE[Hyp]W[Dab]W[NMeNle][NMeF][Dap]CG-NH2; thioether N-14) | 0.385 to 6.74 | 4.78 to 72.9 | – | –
CCCC[C@H]1C(=O)N(C)[C@@H](CCCC)C(=O)N[C@@H](CCCNC(=N)N)C(=O)N[C@H](C(=O)NCC(=O)NCC(N)=O)CSCC(=O)N[C@@H](Cc2ccccc2)C(=O)N(C)[C@@H](C)C(=O)N[C@@H](CC(N)=O)C(=O)N2CCC[C@H]2C(=O)N[C@@H](Cc2cnc[nH]2)C(=O)N[C@@H](CC(C)C)C(=O)N(C)CC(=O)N[C@@H](Cc2c[nH]c3ccccc23)C(=O)N[C@@H](CO)C(=O)N[C@@H](Cc2c[nH]c3ccccc23)C(=O)N1C [Example 6001] ({CH2CO}-F[NMeA]NPHL[Sar]WSW[NMeNle][NMeNle]RCGG-NH2; thioether N-14) | 6.76 to 30.3 | 4.78 to 72.9 | – | –
CCCC[C@H]1C(=O)N(C)[C@@H](CCCC)C(=O)N[C@@H](CCCNC(=N)N)C(=O)N[C@H](C(=O)NCC(N)=O)CSCC(=O)N[C@@H](Cc2ccccc2)C(=O)N(C)[C@@H](C)C(=O)N[C@@H](CC(N)=O)C(=O)N2CCC[C@H]2C(=O)N[C@@H](Cc2cnc[nH]2)C(=O)N[C@@H](CCCNC(=N)N)C(=O)N(C)CC(=O)N[C@@H](Cc2c[nH]c3ccccc23)C(=O)N[C@@H](CO)C(=O)N[C@@H](Cc2c[nH]c3ccccc23)C(=O)N1C [Example 6003] ({CH2CO}-F[NMeA]NPHR[Sar]WSW[NMeNle][NMeNle]RCG-NH2; thioether N-14) | 6.76 to 30.3 | – | 72.9 | –
CCCC[C@H]1C(=O)N(C)[C@@H](CCCC)C(=O)N[C@@H](CCCNC(=N)N)C(=O)N[C@H](C(=O)NCC(N)=O)CSCC(=O)N[C@@H](Cc2ccccc2)C(=O)N(C)[C@@H](C)C(=O)N[C@@H](CC(N)=O)C(=O)N2CCC[C@H]2C(=O)N[C@@H](Cc2cnc[nH]2)C(=O)N[C@@H](CCCCN)C(=O)N(C)CC(=O)N[C@@H](Cc2c[nH]c3ccccc23)C(=O)N[C@@H](CO)C(=O)N[C@@H](Cc2c[nH]c3ccccc23)C(=O)N1C [Example 6004] ({CH2CO}-F[NMeA]NPHK[Sar]WSW[NMeNle][NMeNle]RCG-NH2; thioether N-14) | 6.76 to 30.3 | 4.78 to 72.9 | – | –
CCCC[C@H]1C(=O)N(C)[C@@H](CCCC)C(=O)N[C@@H](CCCNC(=N)N)C(=O)N[C@H](C(=O)NCC(N)=O)CSCC(=O)N[C@@H](Cc2ccccc2)C(=O)N(C)[C@@H](C)C(=O)N[C@@H](CC(N)=O)C(=O)N2CCC[C@H]2C(=O)N[C@@H](Cc2cnc[nH]2)C(=O)N[C@@H](C(C)O)C(=O)N(C)CC(=O)N[C@@H](Cc2c[nH]c3ccccc23)C(=O)N[C@@H](CO)C(=O)N[C@@H](Cc2c[nH]c3ccccc23)C(=O)N1C (stereo partly shown) [Example 6005] ({CH2CO}-F[NMeA]NPH[Thr(3ξ)][Sar]WSW[NMeNle][NMeNle]RCG-NH2; thioether N-14) | 6.76 to 30.3 | 4.78 to 72.9 | – | –
CCCC[C@H]1C(=O)N(C)[C@@H](CCCC)C(=O)N[C@@H](CCCNC(=N)N)C(=O)N[C@H](C(=O)NCC(N)=O)CSCC(=O)N[C@@H](Cc2ccccc2)C(=O)N(C)[C@@H](C)C(=O)N[C@@H](CC(N)=O)C(=O)N2CCC[C@H]2C(=O)N[C@@H](Cc2cnc[nH]2)C(=O)N[C@@H](CCC(N)=O)C(=O)N(C)CC(=O)N[C@@H](Cc2c[nH]c3ccccc23)C(=O)N[C@@H](CO)C(=O)N[C@@H](Cc2c[nH]c3ccccc23)C(=O)N1C [Example 6006] ({CH2CO}-F[NMeA]NPHQ[Sar]WSW[NMeNle][NMeNle]RCG-NH2; thioether N-14) | 6.76 to 30.3 | 4.78 to 72.9 | – | –
CCCC[C@H]1C(=O)N(C)[C@@H](CCCC)C(=O)N[C@@H](CCCNC(=N)N)C(=O)N[C@H](C(=O)NCC(N)=O)CSCC(=O)N[C@@H](Cc2ccccc2)C(=O)N(C)[C@@H](C)C(=O)N[C@@H](CC(N)=O)C(=O)N2CCC[C@H]2C(=O)N[C@@H](Cc2cnc[nH]2)C(=O)N[C@@H](C(C)C)C(=O)N(C)CC(=O)N[C@@H](Cc2c[nH]c3ccccc23)C(=O)N[C@@H](CO)C(=O)N[C@@H](Cc2c[nH]c3ccccc23)C(=O)N1C [Example 6007] ({CH2CO}-F[NMeA]NPHV[Sar]WSW[NMeNle][NMeNle]RCG-NH2; thioether N-14) | 6.76 to 30.3 | 4.78 to 72.9 | – | –
CCCC[C@H]1C(=O)N(C)[C@@H](CCCC)C(=O)N[C@@H](CCCNC(=N)N)C(=O)N[C@H](C(=O)NCC(N)=O)CSCC(=O)N[C@@H](Cc2ccccc2)C(=O)N(C)[C@@H](C)C(=O)N[C@@H](CC(N)=O)C(=O)N2CCC[C@H]2C(=O)N[C@@H](Cc2cnc[nH]2)C(=O)N[C@@H](Cc2cnc[nH]2)C(=O)N(C)CC(=O)N[C@@H](Cc2c[nH]c3ccccc23)C(=O)N[C@@H](CO)C(=O)N[C@@H](Cc2c[nH]c3ccccc23)C(=O)N1C [Example 6008] ({CH2CO}-F[NMeA]NPHH[Sar]WSW[NMeNle][NMeNle]RCG-NH2; thioether N-14) | > 30.5 | > 74.3 | – | –
CCCC[C@H]1C(=O)N(C)[C@@H](CCCC)C(=O)N[C@@H](CCCNC(=N)N)C(=O)N[C@H](C(=O)NCC(N)=O)CSCC(=O)N[C@@H](Cc2ccccc2)C(=O)N(C)[C@@H](C)C(=O)N[C@@H](CC(N)=O)C(=O)N2CCC[C@H]2C(=O)N[C@@H](Cc2cnc[nH]2)C(=O)N[C@@H](Cc2c[nH]c3ccccc23)C(=O)N(C)CC(=O)N[C@@H](Cc2c[nH]c3ccccc23)C(=O)N[C@@H](CO)C(=O)N[C@@H](Cc2c[nH]c3ccccc23)C(=O)N1C [Example 6009] ({CH2CO}-F[NMeA]NPHW[Sar]WSW[NMeNle][NMeNle]RCG-NH2; thioether N-14) | – | – | 158 | 69.7
CCCC[C@H]1C(=O)N(C)[C@@H](CCCC)C(=O)N[C@@H](CCCNC(=N)N)C(=O)N[C@H](C(=O)NCC(N)=O)CSCC(=O)N[C@@H](Cc2ccccc2)C(=O)N(C)[C@@H](C)C(=O)N[C@@H](CC(N)=O)C(=O)N2CCC[C@H]2C(=O)N[C@@H](Cc2cnc[nH]2)C(=O)N[C@@H](CO)C(=O)N(C)CC(=O)N[C@@H](Cc2c[nH]c3ccccc23)C(=O)N[C@@H](CO)C(=O)N[C@@H](Cc2c[nH]c3ccccc23)C(=O)N1C [Example 6010] ({CH2CO}-F[NMeA]NPHS[Sar]WSW[NMeNle][NMeNle]RCG-NH2; thioether N-14) | > 30.5 | > 74.3 | – | –
CCCC[C@H]1C(=O)N(C)[C@@H](CCCC)C(=O)N[C@@H](CCCNC(=N)N)C(=O)N[C@H](C(=O)NCC(N)=O)CSCC(=O)N[C@@H](Cc2ccccc2)C(=O)N(C)[C@@H](C)C(=O)N[C@@H](CC(N)=O)C(=O)N2CCC[C@H]2C(=O)N[C@@H](Cc2cnc[nH]2)C(=O)N[C@@H](C(C)CC)C(=O)N(C)CC(=O)N[C@@H](Cc2c[nH]c3ccccc23)C(=O)N[C@@H](CO)C(=O)N[C@@H](Cc2c[nH]c3ccccc23)C(=O)N1C (stereo partly shown) [Example 6011] ({CH2CO}-F[NMeA]NPH[Ile(3ξ)][Sar]WSW[NMeNle][NMeNle]RCG-NH2; thioether N-14) | 6.76 to 30.3 | 4.78 to 72.9 | – | –
CC(C)C[C@@H]1NC(=O)[C@H](Cc2cnc[nH]2)NC(=O)[C@@H]2CCCN2C(=O)[C@H](CC(N)=O)NC(=O)[C@H](C)N(C)C(=O)[C@H](Cc2ccccc2)NC(=O)CSC[C@@H](C(=O)NCC(N)=O)NC(=O)[C@H](CCCNC(=N)N)NC(=O)[C@H](C)N(C)C(=O)[C@H](COCc2ccccc2)N(C)C(=O)[C@H](Cc2c[nH]c3ccccc23)NC(=O)[C@H](CO)NC(=O)[C@H](Cc2c[nH]c3ccccc23)NC(=O)CN(C)C1=O [Example 6012] ({CH2CO}-F[NMeA]NPHL[Sar]WSW[NMeS](Bn)[NMeA]RCG-NH2; thioether N-14) | 6.76 to 30.3 | 4.78 to 72.9 | – | –
CCCC[C@H]1C(=O)N[C@@H](CCCNC(=N)N)C(=O)N[C@H](C(=O)NCC(N)=O)CSCC(=O)N[C@@H](Cc2ccccc2)C(=O)N(C)[C@@H](C)C(=O)N[C@@H](CC(N)=O)C(=O)N2CCC[C@H]2C(=O)N[C@@H](Cc2cnc[nH]2)C(=O)N[C@@H](CC(C)C)C(=O)N(C)CC(=O)N[C@@H](Cc2c[nH]c3ccccc23)C(=O)N[C@@H](CO)C(=O)N[C@@H](Cc2c[nH]c3ccccc23)C(=O)N(C)[C@@H](COCc2ccccc2)C(=O)N1C [Example 6013] ({CH2CO}-F[NMeA]NPHL[Sar]WSW[NMeS](Bn)[NMeNle]RCG-NH2; thioether N-14) | 6.76 to 30.3 | 4.78 to 72.9 | – | –
CCCC[C@H]1C(=O)N(C)[C@@H](CCCC)C(=O)N[C@@H](CCCNC(=N)N)C(=O)N[C@H](C(=O)NCC(N)=O)CSCC(=O)N[C@@H](Cc2ccccc2)C(=O)N(C)[C@@H](C)C(=O)N[C@@H](CC(N)=O)C(=O)N2CCC[C@H]2C(=O)N[C@@H](Cc2cnc[nH]2)C(=O)N[C@@H](Cc2ccc(O)cc2)C(=O)N(C)CC(=O)N[C@@H](Cc2c[nH]c3ccccc23)C(=O)N[C@@H](CO)C(=O)N[C@@H](Cc2c[nH]c3ccccc23)C(=O)N1C [Example 6014] ({CH2CO}-F[NMeA]NPHY[Sar]WSW[NMeNle][NMeNle]RCG-NH2; thioether N-14) | 6.76 to 30.3 | 4.78 to 72.9 | – | –

From patent publication US9850283B2, “Macrocyclic inhibitors of the PD-1/PD-L1 and CD80(B7-1)/PD-L1 protein/protein interactions” (BRISTOL-MYERS SQUIBB COMPANY, priority 2013, dated 2017)
